PubChem BioAssay (NCI)
Where “and” joins values, the source holds several entries; their conditions need not be identical. Equal entries are not always repeated.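 Where inhibition never reached the appropriate level, the endpoint shown equals the highest concentration tested. Otherwise, values were interpolated linearly from a five-concentration, 48-hour dose response in 96-well plates. The concentration for 50% growth inhibition is given as GI50. TGI marks complete inhibition of growth.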

What was measured:
Assay in all cases: NCI tumour cell line growth inhibition, 48 h
NCI/ADR-RES ovarian = system: NCI/ADR-RES ovarian
HCC-2998 colon = system: HCC-2998 colon
SW-620 colon = system: SW-620 colon
K-562 leukemia = system: K-562 leukemia
IGROV1 ovarian = system: IGROV1 ovarian
COLO 205 colon = system: COLO 205 colon
TK-10 renal = system: TK-10 renal
HS 578T breast = system: HS 578T breast
SF-295 CNS = system: SF-295 CNS
T-47D breast = system: T-47D breast

Row | SMILES | GI50 (NCI/ADR-RES ovarian) | TGI (NCI/ADR-RES ovarian) | GI50 (HCC-2998 colon) | TGI (HCC-2998 colon) | GI50 (SW-620 colon) | TGI (SW-620 colon) | GI50 (K-562 leukemia) | TGI (K-562 leukemia) | GI50 (IGROV1 ovarian) | TGI (IGROV1 ovarian) | GI50 (COLO 205 colon) | TGI (COLO 205 colon) | GI50 (TK-10 renal) | TGI (TK-10 renal) | GI50 (HS 578T breast) | TGI (HS 578T breast) | GI50 (SF-295 CNS) | TGI (SF-295 CNS) | GI50 (T-47D breast) | TGI (T-47D breast)
1 | C=C(C)[C@@H]1CC[C@]2(C)[C@H](C=CC3=C4C[C@@](C)(CO)CC[C@]4(C)CC[C@]32C)[C@@]1(C)CCCN | 1.74 µM | 3.37 µM | 0.793 µM | 2.14 µM | 1.56 µM | 3.04 µM | 1.8 µM | 5.04 µM | 1.5 µM | 2.95 µM | 1.49 µM | 3.23 µM | 1.78 µM | 3.36 µM | 1.8 µM | 4.07 µM | 1.78 µM | 3.21 µM |  | 
2 | CC(C)NC(=O)O/N=C1\CCC2[C@@H]3CC=C4C[C@@H](OC(=O)NC(C)C)CC[C@]4(C)C3CC[C@]12C (stereo partly specified) |  |  |  | 5.06 µM |  | 3.72 µM |  | 5.85 µM |  |  |  | 1.29 µM |  | 3.15 µM |  |  |  | 7.67 µM |  | 
3 | CC(=O)/C=C/C1=C(c2ccsc2)c2ccccc2CC1 |  |  | 18.2 µM | 36.2 µM | 33.7 µM | > 100 µM | 21.3 µM | 44 µM |  |  | 36.5 µM | > 100 µM | 33.6 µM | > 100 µM | 48.4 µM | > 100 µM | 19.3 µM | 49.7 µM | 66 µM | > 100 µM
4 | CC1=NN(c2ccccc2)C(=O)C1N=Nc1ccc(Br)c(C)c1 (stereo unspecified) |  |  |  | > 100 µM |  | > 100 µM |  | > 100 µM |  | > 100 µM |  | > 100 µM |  | > 100 µM |  |  |  | > 100 µM |  | 
5 | Cc1cc(C)c2[s+]snc2c1 |  |  |  | > 100 µM |  | > 100 µM |  | > 100 µM |  | > 100 µM |  | > 100 µM |  | > 100 µM |  |  |  | > 100 µM |  | 
6 | N#CC12Cc3ccc4c(c3-c3cccc(c31)CCN2C(=O)c1ccccc1)OCO4 (stereo unspecified) |  |  |  | > 100 µM |  | > 100 µM |  | > 100 µM |  | > 100 µM |  | > 100 µM |  | > 100 µM |  |  |  | > 100 µM |  | 
7 | CC[O-].CC[O-].O=C([CH-]C(=O)c1ccccc1)c1ccccc1.O=C([CH-]C(=O)c1ccccc1)c1ccccc1.[Ti+4] |  |  | > 100 µM | > 100 µM | > 100 µM | > 100 µM |  |  | > 100 µM | > 100 µM | > 100 µM | > 100 µM | > 100 µM | > 100 µM |  |  | > 100 µM | > 100 µM |  | 
8 | Cc1cc2c(cc1C)[n+]([O-])c(-c1c(Cl)cccc1Cl)c(N)[n+]2[O-] |  |  |  | > 100 µM |  | > 100 µM |  | > 100 µM |  | > 100 µM |  | 38.4 µM |  | > 100 µM |  |  |  | > 100 µM |  | 
9 | O=C1c2ccccc2C(=O)c2sc(Nc3ccc(Cl)c(Cl)c3)nc21 |  |  |  | 29.3 µM |  | 3.19 µM |  | 17.9 µM |  | 10.1 µM |  | 15.4 µM |  | 21.8 µM |  | 53.2 µM |  | 29.4 µM |  | 22.7 µM
10 | CC12OC3CC(O1)C1(C=O)C4CCC5(C)C(c6ccc(=O)oc6)CCC5(O)C4CCC1(C3)O2 (stereo unspecified) |  |  |  | 2 µM |  | 1.27 µM |  | > 100 µM |  | 2.44 µM |  | 1.69 µM |  | 0.472 µM |  |  |  | 1.02 µM |  | 
11 | COC(=O)C(=O)C1CCCCC(C2=NC3NN=C(N)N3C2=O)C1=O (stereo unspecified) |  |  |  | > 100 µM |  | > 100 µM |  | > 100 µM |  | > 100 µM |  | > 100 µM |  | > 100 µM |  |  |  | > 100 µM |  | 
12 | NNC(=S)N/N=C/C(Cl)=C(\Cl)C(=O)O |  |  |  | > 100 µM |  | > 100 µM |  | > 100 µM |  | > 100 µM |  |  |  | > 100 µM |  |  |  | > 100 µM |  | 
13 | CC(C)[O-].CC(C)[O-].[O-]c1cccc2cccnc12.[O-]c1cccc2cccnc12.[Ti+4] |  |  | 50.4 µM | > 100 µM | 6.47 µM and 5.89 µM | > 100 µM | 3.04 µM and 3.37 µM | > 100 µM |  | > 100 µM | 24.7 µM | > 100 µM | 34.4 µM | > 100 µM |  |  | > 100 µM | > 100 µM |  | 
14 | COc1cnc2c(c1)C(=O)c1c-2n(CCCN2CCN(CCO)CC2)c(=O)c2cc([N+](=O)[O-])ccc12 | 1.29 µM | 3.86 µM | 11.7 µM | 24.9 µM | 0.326 µM | 2.07 µM |  |  |  |  | 1.18 µM | 5.13 µM | 2.77 µM | 11.9 µM | 14.7 µM | 42.1 µM | 0.533 µM | 2.05 µM | 12.8 µM | 46.5 µM
15 | C[N+]1=c2c3cccc4cccc(c(=O)n2CCC1)c43 |  |  |  |  |  | > 100 µM |  | 32 µM |  | > 100 µM |  | 32.2 µM |  | 56.4 µM |  |  |  | > 100 µM |  | 
16 | CCOc1ccc(NC(=O)CCC(=O)NN)cc1 |  |  |  | > 100 µM |  | > 100 µM |  | > 100 µM |  |  |  | > 100 µM |  | > 100 µM |  |  |  | > 100 µM |  | 
17 | CCCCCc1c(C)[nH]c(/C=c2\[nH]/c(=C3/C=c4ccccc4=N3)cc2OC)c1C | 0.17 µM | 3.72 µM | 0.0452 µM | 5.88 µM | 0.0341 µM | 2.84 µM |  |  | 0.265 µM | 5.25 µM | 0.0568 µM | 0.494 µM | 0.0504 µM | 0.716 µM | 0.0846 µM | 0.883 µM | 0.0902 µM | 0.452 µM | 0.0588 µM | 0.698 µM
18 | CCNCCNc1cc(-c2cccc(C(F)(F)F)c2)c(C#N)c2nc3ccccc3n12 | 1.81 µM | 3.86 µM | 1.65 µM | 3.13 µM | 0.39 µM | 1.51 µM |  |  | 1.72 µM | 3.49 µM | 0.557 µM | 1.99 µM | 2.14 µM | 3.69 µM | 1.84 µM | 3.88 µM | 1.79 µM | 3.39 µM | 2.2 µM | 4.21 µM
19 | CCc1oc2ccc(OC)c3c2c1C=CC=C3 |  |  |  | > 100 µM |  | > 100 µM |  | > 100 µM |  | > 100 µM |  | > 100 µM |  | > 100 µM |  |  |  | > 100 µM |  | 
20 | CC[C@H](C)[C@H](NC(=O)C12CC(NC(C)=O)(C1)C2)C(=O)N(C)[C@H](C[C@@H](OC(C)=O)c1nc(C(=O)N[C@@H](Cc2ccccc2)C[C@H](C)C(=O)OC)cs1)C(C)C | > 16.7 µM | > 16.7 µM | 0.21 µM | > 16.7 µM | 0.0854 µM | > 16.7 µM | 0.101 µM | > 16.7 µM | 0.502 µM | > 16.7 µM | 0.0991 µM | 1.06 µM | > 4.97 µM | > 16.7 µM | 0.505 µM | > 9.51 µM | 0.36 µM | > 5.25 µM |  | 
